Test results: ChEMBL document CHEMBL1201862, “PubChem BioAssay data set” (2004)
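These data come from cells grown in 96-well plates and exposed to compound for 48 hours at five concentrations. At the GI50, growth is halved.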 The source made the active and inactive calls. No stated cut-off is given here; in the data, active = GI50 up to about 1.1 µM and inactive = higher.

Key:
Experiment in all cases: NCI-60 cell line screen, 48 h
TK-10 = test system: TK-10
OVCAR-3 = test system: OVCAR-3
UACC-257 = test system: UACC-257
SNB-75 = test system: SNB-75
NCI-H23 = test system: NCI-H23
HL-60 = test system: HL-60
M19-MEL = test system: M19-MEL
SF-295 = test system: SF-295
SR = test system: SR
RXF 393 = test system: RXF 393
OVCAR-8 = test system: OVCAR-8
HT-29 = test system: HT-29
KM-20L2 = test system: KM-20L2
HOP-92 = test system: HOP-92
RPMI-8226 = test system: RPMI-8226
SK-MEL-2 = test system: SK-MEL-2
SNB-19 = test system: SNB-19
SK-MEL-28 = test system: SK-MEL-28
SN12C = test system: SN12C
EKVX = test system: EKVX
SF-539 = test system: SF-539
SNB-78 = test system: SNB-78
HOP-62 = test system: HOP-62
OVCAR-5 = test system: OVCAR-5
UO-31 = test system: UO-31
NCI-H226 = test system: NCI-H226
HCT-116 = test system: HCT-116
HCC 2998 = test system: HCC 2998
LOX IMVI = test system: LOX IMVI
NCI-H460 = test system: NCI-H460
786-0 = test system: 786-0
MOLT-4 = test system: MOLT-4
SF-268 = test system: SF-268
ACHN = test system: ACHN
Malme-3M = test system: Malme-3M
CCRF-CEM = test system: CCRF-CEM
SW-620 = test system: SW-620
A549 = test system: A549
IGROV-1 = test system: IGROV-1
SK-OV-3 = test system: SK-OV-3
U-251 = test system: U-251
HCT-15 = test system: HCT-15
HOP-18 = test system: HOP-18
XF498 = test system: XF498
COLO 205 = test system: COLO 205
DMS-273 = test system: DMS-273
UACC-62 = test system: UACC-62
LXFL 529 = test system: LXFL 529
DLD-1 = test system: DLD-1
K562 = test system: K562
DMS-114 = test system: DMS-114
KM12 = test system: KM12
NCI-H522 = test system: NCI-H522
CAKI-1 = test system: CAKI-1
M14 = test system: M14
OVCAR-4 = test system: OVCAR-4

Measured: GI50

NC1CCCCC1.O=C(O)C(CP(=O)(O)O)=C(Cl)Cl
> 100 µM: HCT-15
inactive: TK-10 > 100 µM | OVCAR-3 > 100 µM | UACC-257 > 100 µM | SNB-75 > 100 µM | NCI-H23 > 100 µM | HL-60 > 100 µM | M19-MEL > 100 µM | SF-295 > 100 µM | SR > 100 µM | RXF 393 > 100 µM | OVCAR-8 > 100 µM | HT-29 > 100 µM | KM-20L2 > 100 µM | HOP-92 > 100 µM | RPMI-8226 > 100 µM | SK-MEL-2 > 100 µM | SNB-19 > 100 µM | SK-MEL-28 > 100 µM | SN12C > 100 µM | EKVX > 100 µM | SF-539 > 100 µM | SNB-78 > 100 µM | HOP-62 > 100 µM | OVCAR-5 > 100 µM | UO-31 > 100 µM | NCI-H226 > 100 µM | HCT-116 > 100 µM | HCC 2998 > 100 µM | LOX IMVI > 100 µM | NCI-H460 > 100 µM | 786-0 > 100 µM | MOLT-4 > 100 µM | SF-268 > 100 µM | ACHN > 100 µM | Malme-3M > 100 µM | CCRF-CEM > 100 µM | SW-620 > 100 µM | A549 > 100 µM | IGROV-1 > 100 µM | SK-OV-3 > 100 µM | U-251 > 100 µM | HOP-18 > 100 µM | XF498 > 100 µM | COLO 205 > 100 µM | DMS-273 > 100 µM | UACC-62 > 100 µM | LXFL 529 > 100 µM

COC(=O)/C(C#N)=C1\CCC(O)N1 (configuration not stated)
inactive: TK-10 > 100 µM | OVCAR-3 > 100 µM | UACC-257 > 100 µM | SNB-75 > 100 µM | NCI-H23 > 100 µM | DLD-1 > 100 µM | HL-60 > 100 µM | M19-MEL > 100 µM | SF-295 > 100 µM | SR > 100 µM | RXF 393 > 100 µM | OVCAR-8 > 100 µM | HT-29 > 100 µM | KM-20L2 > 100 µM | RPMI-8226 > 100 µM | SK-MEL-2 > 100 µM | SNB-19 > 100 µM | SK-MEL-28 > 100 µM | SN12C > 100 µM | EKVX > 100 µM | SF-539 > 100 µM | SNB-78 > 100 µM | HOP-62 > 100 µM | OVCAR-5 > 100 µM | UO-31 > 100 µM | NCI-H226 > 100 µM | HCT-116 > 100 µM | HCC 2998 > 100 µM | K562 > 100 µM | LOX IMVI > 100 µM | DMS-114 > 100 µM | KM12 > 100 µM | NCI-H460 > 100 µM | 786-0 > 100 µM | NCI-H522 > 100 µM | MOLT-4 > 100 µM | SF-268 > 100 µM | ACHN > 100 µM | Malme-3M > 100 µM | CCRF-CEM > 100 µM | SW-620 > 100 µM | A549 > 100 µM | IGROV-1 > 100 µM | SK-OV-3 > 100 µM | U-251 > 100 µM | HOP-18 > 100 µM | CAKI-1 > 100 µM | XF498 > 100 µM | M14 > 100 µM | OVCAR-4 > 100 µM | COLO 205 > 100 µM | DMS-273 > 100 µM | UACC-62 > 100 µM | LXFL 529 > 100 µM
